In patent publication US8435978B2, “Substituted sulfonamide compounds” (Gruenenthal GmbH, priority 2006, dated 2013):

Tests used:
[1] = target: T1, human B1R receptor (Homo sapiens, UniProt P46663); test: Functional study on the bradykinin receptor 1 (B1R), FLIPR Ca2+ assay, hB1R cells; format: cell-based; details: agonist Lys-Des-Arg9-bradykinin 0.5 nM, % inhibition compared with the maximum achievable inhibition; for inhibition at 10 µM: CHO-K1, test substance 10 μM, read-out: B1R Antagonism, human [10 μM] % Inhibition
T1 construct: host or cells: CHO K1 cells (Chinese hamster ovary), stably transfected
T1 sequence (P46663 1-353): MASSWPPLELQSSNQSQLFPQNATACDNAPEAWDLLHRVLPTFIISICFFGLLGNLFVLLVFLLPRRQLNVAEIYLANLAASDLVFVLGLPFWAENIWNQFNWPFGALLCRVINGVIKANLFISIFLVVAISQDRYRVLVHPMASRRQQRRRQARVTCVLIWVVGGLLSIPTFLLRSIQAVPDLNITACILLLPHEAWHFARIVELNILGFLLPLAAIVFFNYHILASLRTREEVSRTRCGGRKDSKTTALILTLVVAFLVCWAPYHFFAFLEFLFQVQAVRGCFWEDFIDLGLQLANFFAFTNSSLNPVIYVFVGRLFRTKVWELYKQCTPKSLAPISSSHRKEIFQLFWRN
Procedure, shortened: (§1)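 CHO K1 cells stably expressing human or rat B1R were loaded with Fluo-4 and read on a FLIPR (ex 488/em 540 nm, peak fluorescence). Test compounds at 10 μM were added first, then after 10 min agonist: Lys-Des-Arg9-bradykinin 0.5 nM for hB1R, Des-Arg9-bradykinin 100 nM for rB1R; % inhibition versus maximum inhibition.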

[2] = target: T2, B1R receptor of the rat (Rattus norvegicus, UniProt P97583); test: Functional study on the bradykinin receptor 1 (B1R), FLIPR Ca2+ assay, rB1R cells; format: cell-based; details: agonist Des-Arg9-bradykinin 100 nM, % inhibition compared with the maximum achievable inhibition; for inhibition at 10 µM: CHO-K1, test substance 10 μM, read-out: B1R Antagonism, rat [10 μM] % Inhibition
T2 construct: host or cells: CHO K1 cells (Chinese hamster ovary), stably transfected
T2 sequence (P97583 1-337): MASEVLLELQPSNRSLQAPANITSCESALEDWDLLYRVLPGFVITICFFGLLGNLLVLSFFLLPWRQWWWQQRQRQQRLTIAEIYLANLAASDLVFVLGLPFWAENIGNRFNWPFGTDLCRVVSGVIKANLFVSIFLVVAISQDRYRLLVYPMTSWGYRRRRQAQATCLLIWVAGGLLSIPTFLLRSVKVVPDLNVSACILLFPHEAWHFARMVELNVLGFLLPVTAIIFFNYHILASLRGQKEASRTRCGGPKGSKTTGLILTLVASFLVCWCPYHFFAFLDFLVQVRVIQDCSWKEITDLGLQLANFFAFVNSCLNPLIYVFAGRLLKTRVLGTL
Procedure, shortened: as §1

| inhibition at 10 µM [1] | inhibition at 10 µM [2] | B1R Antagonism, human [10 μM] % Inhibition ([1]; test substance 10 μM, hB1R CHO K1 cells) | B1R Antagonism, rat [10 μM] % Inhibition ([2]; test substance 10 μM, rB1R CHO K1 cells) | SMILES |
| --- | --- | --- | --- | --- |
| 83.4% | 102% | – | – | Cc1ccc(N2CCN(C(=O)COCC3CCCN3S(=O)(=O)c3c(Cl)cccc3Cl)CC2)cc1C (stereo not shown) [Example 355, 2-((1-(2,6-dichlorophenylsulfonyl)pyrrolidin-2-yl)methoxy)-1-(4-(3,4-dimethylphenyl)piperazin-1-yl)ethanone] |
| 0.38% | 101% | – | – | COc1cc(C)c(S(=O)(=O)N2CCCCC2COCC(=O)Nc2nc3ccccc3n2C)c(C)c1 (stereo not shown) [Example 371, 2-((1-(4-methoxy-2,6-dimethylphenylsulfonyl)piperidin-2-yl)methoxy)-N-(1-methyl-1H-benzo[d]imidazol-2-yl)acetamide] |
| 85.2% | 99% | – | – | COc1cc(C)c(S(=O)(=O)N2CCCCC2COCC(=O)N2CCN(c3ccc(C(F)(F)F)cn3)CC2)c(C)c1 (stereo not shown) [Example 514, 2-((1-(4-methoxy-2,6-dimethylphenylsulfonyl)piperidin-2-yl)methoxy)-1-(4-(5-(trifluoromethyl)pyridin-2-yl)piperazin-1-yl)ethanone] |
| 105% | 101% | – | – | O=C(COCC1CCCCN1S(=O)(=O)c1c(Cl)cc(Cl)cc1Cl)N(C1CC1)C1CCN(Cc2ccccc2)CC1 (stereo not shown) [Example 255, N-(1-benzylpiperidin-4-yl)-N-cyclopropyl-2-((1-(2,4,6-trichlorophenylsulfonyl)piperidin-2-yl)methoxy)acetamide] |
| 58.7% | 80.1% | – | – | COc1ccc(S(=O)(=O)N2c3ccccc3CC2COCC(=O)Nc2cccc(CN3CCCCC3)c2)cc1 (stereo not shown) [Example 423, 2-((1-(4-methoxyphenylsulfonyl)indolin-2-yl)methoxy)-N-(3-(piperidin-1-ylmethyl)phenyl)acetamide] |
| 66.5% | 94.2% | – | – | COc1cc(C)c(S(=O)(=O)N2CCCC2COCC(=O)N2CCCC2Cc2ccccn2)c(C)c1 (stereo not shown) [Example 447, 2-((1-(4-methoxy-2,6-dimethylphenylsulfonyl)pyrrolidin-2-yl)methoxy)-1-(2-(pyridin-2-ylmethyl)pyrrolidin-1-yl)ethanone] |
| – | – | 68.07% | 48.84% | CN(C(=O)COCC1CCCCN1S(=O)(=O)c1cccc2ccccc12)C(CN1CCOCC1)c1ccccc1 (stereo not shown) [Example 47, N-methyl-N-(2-morpholin-4-yl-1-phenyl-ethyl)-2-[1-(naphthyl-1-sulfonyl)-piperidin-2-ylmethoxy]-acetamide] |
| 38.8% | 107% | – | – | COc1cc(C)c(S(=O)(=O)N2CCCCC2COCC(=O)Nc2cc(-c3cccs3)n[nH]2)c(C)c1 (stereo not shown) [Example 539, 2-((1-(4-methoxy-2,6-dimethylphenylsulfonyl)piperidin-2-yl)methoxy)-N-(3-(thiophen-2-yl)-1H-pyrazol-5-yl)acetamide] |
| 97.3% | 93.4% | – | – | COc1cc(C)c(S(=O)(=O)N2CCCCC2COCC(=O)Nc2ccc(CN3CCC(C)CC3)cc2)c(C)c1 (stereo not shown) [Example 421, 2-((1-(4-methoxy-2,6-dimethylphenylsulfonyl)piperidin-2-yl)methoxy)-N-(4-((4-methylpiperidin-1-yl)methyl)phenyl)acetamide] |
| 42.1% | 7.33% | – | – | CN(C)CCCN1CCN(C(=O)COCC2CCCN2S(=O)(=O)c2ccc(Cl)c(Cl)c2)CC1 (stereo not shown) [Example 88, 2-[1-(3,4-dichloro-phenylsulfonyl)-pyrrolidin-2-ylmethoxy]-1-[4-(3-dimethylamino-propyl)-piperazin-1-yl]-ethanone] |
| 96.7% | 103% | – | – | COc1cc(C)c(S(=O)(=O)N2CCCC2COCC(=O)NCC(c2ccccc2Cl)N2CCCC2)c(C)c1 (stereo not shown) [Example 502, N-(2-(2-chlorophenyl)-2-(pyrrolidin-1-yl)ethyl)-2-((1-(4-methoxy-2,6-dimethylphenylsulfonyl)pyrrolidin-2-yl)methoxy)acetamide] |
